# Measurements: ChEMBL document CHEMBL4138165, “Design, synthesis and biological evaluation of new β-carboline-bisindole compounds as DNA binding, photocleavage agents and topoisomerase I inhibitors” (Eur J Med Chem, 2018)
# Activity calls are given as the source filed them. The calls are words filed in the database; no cut-off is given here.
# Experiments:
# DU-145 = experiment: Antiproliferative activity against human DU145 cells after 48 hrs by MTT assay; assay type: functional, cell-based; settings: DU-145, 48 h
# NIH3T3 = experiment: Antiproliferative activity against mouse NIH/3T3 cells after 48 hrs by MTT assay; assay type: functional, cell-based; settings: NIH3T3, 48 h
# A549 = experiment: Antiproliferative activity against human A549 cells after 48 hrs by MTT assay; assay type: functional, cell-based; settings: A549, 48 h
# MCF7 = experiment: Antiproliferative activity against human MCF7 cells after 48 hrs by MTT assay; assay type: functional, cell-based; settings: MCF7, 48 h
# HeLa = experiment: Antiproliferative activity against human HeLa cells after 48 hrs by MTT assay; assay type: functional, cell-based
# [1] = target: T1, Topoisomerase I (Bos taurus) (UniProt Q2HPH0); experiment: Inhibition of calf thymus DNA topoisomerase 1 at 20 uM using pBR322 DNA as substrate after 30 mins by agarose gel electrophoresis method
# T1 sequence (whole entry): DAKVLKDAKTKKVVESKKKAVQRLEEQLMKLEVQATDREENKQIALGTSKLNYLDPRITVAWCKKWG
compound,measurement,setting,value
Cc1ccc(-c2nc(C(c3c[nH]c4ccc([N+](=O)[O-])cc34)c3c[nH]c4ccc([N+](=O)[O-])cc34)cc3c2[nH]c2ccccc23)cc1,IC50,DU-145,6 µM
same,IC50,NIH3T3,145 µM
same,IC50,A549,6.92 µM
same,IC50,MCF7,16.9 µM
same,IC50,HeLa,10.9 µM
CC[C@@]1(O)C(=O)OCc2c1cc1n(c2=O)Cc2cc3ccccc3nc2-1,inhibition,[1],Active
COc1ccc(-c2nc(C(c3c[nH]c4ccc(OC)cc34)c3c[nH]c4ccc(OC)cc34)cc3c2[nH]c2ccccc23)cc1,IC50,DU-145,16.3 µM
same,IC50,NIH3T3,102 µM
same,IC50,A549,18.1 µM
same,IC50,MCF7,29.9 µM
same,IC50,HeLa,32.5 µM
Cc1[nH]c2ccc([N+](=O)[O-])cc2c1C(c1cc2c([nH]c3ccccc32)c(-c2ccc(F)cc2)n1)c1c(C)[nH]c2ccc([N+](=O)[O-])cc12,IC50,DU-145,16.9 µM
same,IC50,NIH3T3,102 µM
same,IC50,A549,18.6 µM
same,IC50,MCF7,27.7 µM
same,IC50,HeLa,31.5 µM
Fc1ccc(-c2nc(C(c3c[nH]c4ccc(Br)cc34)c3c[nH]c4ccc(Br)cc34)cc3c2[nH]c2ccccc23)cc1,IC50,DU-145,7.74 µM
same,IC50,NIH3T3,90.1 µM
same,IC50,A549,8.3 µM
same,IC50,MCF7,18.3 µM
same,IC50,HeLa,9.5 µM
COc1ccc(-c2nc(C(c3c[nH]c4ccc([N+](=O)[O-])cc34)c3c[nH]c4ccc([N+](=O)[O-])cc34)cc3c2[nH]c2ccccc23)cc1,IC50,DU-145,9.31 µM
same,IC50,NIH3T3,118 µM
same,IC50,A549,10.4 µM
same,IC50,MCF7,50.1 µM
same,IC50,HeLa,18 µM
COc1cc(-c2nc(C(c3c[nH]c4ccc(Br)cc34)c3c[nH]c4ccc(Br)cc34)cc3c2[nH]c2ccccc23)cc(OC)c1OC,IC50,DU-145,14.7 µM
same,IC50,NIH3T3,64.3 µM
same,IC50,A549,21.8 µM
same,IC50,MCF7,33.4 µM
same,IC50,HeLa,15.8 µM
COc1ccc(-c2nc(C(c3c[nH]c4ccc(F)cc34)c3c[nH]c4ccc(F)cc34)cc3c2[nH]c2ccccc23)cc1,IC50,DU-145,8.33 µM
same,IC50,NIH3T3,94.4 µM
same,IC50,A549,27.6 µM
same,IC50,MCF7,30.6 µM
same,IC50,HeLa,35.5 µM
COc1ccc(-c2nc(C(c3c(C)[nH]c4ccc([N+](=O)[O-])cc34)c3c(C)[nH]c4ccc([N+](=O)[O-])cc34)cc3c2[nH]c2ccccc23)cc1,IC50,DU-145,16.6 µM
same,IC50,NIH3T3,126 µM
same,IC50,A549,11.7 µM
same,IC50,MCF7,25.3 µM
same,IC50,HeLa,21.5 µM
COc1ccc2[nH]cc(C(c3cc4c([nH]c5ccccc54)c(-c4ccc(F)cc4)n3)c3c[nH]c4ccc(OC)cc34)c2c1,IC50,DU-145,10.6 µM
same,IC50,NIH3T3,110 µM
same,IC50,A549,14.6 µM
same,IC50,MCF7,34.6 µM
same,IC50,HeLa,23.7 µM
Cc1ccc(-c2nc(C(c3c(C)[nH]c4ccc([N+](=O)[O-])cc34)c3c(C)[nH]c4ccc([N+](=O)[O-])cc34)cc3c2[nH]c2ccccc23)cc1,IC50,DU-145,15 µM
same,IC50,NIH3T3,52.1 µM
same,IC50,A549,21.1 µM
same,IC50,MCF7,22.8 µM
same,IC50,HeLa,28.1 µM
COc1cc(-c2nc(C(c3c[nH]c4ccccc34)c3c[nH]c4ccc(C#N)cc34)cc3c2[nH]c2ccccc23)cc(OC)c1OC (stereo not drawn),IC50,DU-145,19 µM
same,IC50,NIH3T3,57.2 µM
same,IC50,A549,19.3 µM
same,IC50,MCF7,11.8 µM
same,IC50,HeLa,9.86 µM
COc1cc(-c2nc(C(c3c[nH]c4ccc([N+](=O)[O-])cc34)c3c[nH]c4ccc([N+](=O)[O-])cc34)cc3c2[nH]c2ccccc23)cc(OC)c1OC,IC50,DU-145,11.9 µM
same,IC50,NIH3T3,128 µM
same,IC50,A549,17.1 µM
same,IC50,MCF7,16.3 µM
same,IC50,HeLa,14.2 µM
Cc1ccc(-c2nc(C(c3c[nH]c4ccc(F)cc34)c3c[nH]c4ccc(F)cc34)cc3c2[nH]c2ccccc23)cc1,IC50,DU-145,5.81 µM
same,IC50,NIH3T3,66.2 µM
same,IC50,A549,14.2 µM
same,IC50,MCF7,14.2 µM
same,IC50,HeLa,12.4 µM
N#Cc1ccc2[nH]cc(C(c3cc4c([nH]c5ccccc54)c(-c4ccc(F)cc4)n3)c3c[nH]c4ccccc34)c2c1 (stereo not drawn),IC50,DU-145,2.34 µM
same,IC50,NIH3T3,58.1 µM
same,IC50,A549,15.7 µM
same,IC50,MCF7,26.3 µM
same,IC50,HeLa,17.1 µM
COc1ccc(-c2nc(C(c3c[nH]c4ccc(Br)cc34)c3c[nH]c4ccc(Br)cc34)cc3c2[nH]c2ccccc23)cc1,IC50,DU-145,2.63 µM
same,IC50,NIH3T3,86.3 µM
same,IC50,A549,9.24 µM
same,IC50,MCF7,18.6 µM
same,IC50,HeLa,15 µM
COc1ccc(-c2nc(C(c3c[nH]c4ccccc34)c3c[nH]c4ccccc34)cc3c2[nH]c2ccccc23)cc1,IC50,DU-145,12.8 µM
same,IC50,NIH3T3,83.2 µM
same,IC50,A549,13.5 µM
same,IC50,MCF7,38.1 µM
same,IC50,HeLa,26.2 µM
Fc1ccc(-c2nc(C(c3c[nH]c4ccc(F)cc34)c3c[nH]c4ccc(F)cc34)cc3c2[nH]c2ccccc23)cc1,IC50,DU-145,15.8 µM
same,IC50,NIH3T3,114 µM
same,IC50,A549,18.5 µM
same,IC50,MCF7,19.8 µM
same,IC50,HeLa,18.1 µM
COc1ccc(-c2nc(C(c3c[nH]c4ccccc34)c3c[nH]c4ccc(C#N)cc34)cc3c2[nH]c2ccccc23)cc1 (stereo not drawn),IC50,DU-145,14.8 µM
same,IC50,NIH3T3,119 µM
same,IC50,A549,13.7 µM
same,IC50,MCF7,28.9 µM
same,IC50,HeLa,30.9 µM
COc1ccc2c(c1)[nH]c1c(C)nccc12 [HARMINE],IC50,DU-145,12 µM
same,IC50,A549,7.76 µM
same,IC50,MCF7,10.8 µM
same,IC50,HeLa,16.2 µM
COc1cc(-c2nc(C(c3c(C)[nH]c4ccc([N+](=O)[O-])cc34)c3c(C)[nH]c4ccc([N+](=O)[O-])cc34)cc3c2[nH]c2ccccc23)cc(OC)c1OC,IC50,DU-145,20.7 µM
same,IC50,NIH3T3,105 µM
same,IC50,A549,31.7 µM
same,IC50,MCF7,33.1 µM
same,IC50,HeLa,22.6 µM
COc1cc(-c2nc(C(c3c[nH]c4ccccc34)c3c[nH]c4ccccc34)cc3c2[nH]c2ccccc23)cc(OC)c1OC,IC50,DU-145,12.8 µM
same,IC50,NIH3T3,92.9 µM
same,IC50,A549,22.7 µM
same,IC50,MCF7,34.9 µM
same,IC50,HeLa,21.4 µM
COc1ccc2[nH]cc(C(c3cc4c([nH]c5ccccc54)c(-c4cc(OC)c(OC)c(OC)c4)n3)c3c[nH]c4ccccc34)c2c1 (stereo not drawn),IC50,DU-145,19.5 µM
same,IC50,NIH3T3,100 µM
same,IC50,A549,20.4 µM
same,IC50,MCF7,44.2 µM
same,IC50,HeLa,39.8 µM
Cc1ccc(-c2nc(C(c3c[nH]c4ccccc34)c3c[nH]c4ccccc34)cc3c2[nH]c2ccccc23)cc1,IC50,DU-145,13.7 µM
same,IC50,NIH3T3,101 µM
same,IC50,A549,10 µM
same,IC50,MCF7,18.1 µM
same,IC50,HeLa,14.3 µM
COc1ccc2[nH]cc(C(c3cc4c([nH]c5ccccc54)c(-c4ccc(C)cc4)n3)c3c[nH]c4ccc(OC)cc34)c2c1,IC50,DU-145,23.1 µM
same,IC50,NIH3T3,59.3 µM
same,IC50,A549,30.1 µM
same,IC50,MCF7,27.4 µM
same,IC50,HeLa,33.8 µM
Cc1ccc(-c2nc(C(c3c[nH]c4ccc(C#N)cc34)c3c[nH]c4ccc(C#N)cc34)cc3c2[nH]c2ccccc23)cc1,IC50,DU-145,7.32 µM
same,IC50,NIH3T3,60.6 µM
same,IC50,A549,11 µM
same,IC50,MCF7,17.4 µM
same,IC50,HeLa,16 µM
COc1cc(-c2nc(C(c3c[nH]c4ccc(F)cc34)c3c[nH]c4ccc(F)cc34)cc3c2[nH]c2ccccc23)cc(OC)c1OC,IC50,DU-145,10.1 µM
same,IC50,NIH3T3,118 µM
same,IC50,A549,16.9 µM
same,IC50,MCF7,13.6 µM
same,IC50,HeLa,12.2 µM
COc1cccc2c1C(=O)c1c(O)c3c(c(O)c1C2=O)C[C@@](O)(C(=O)CO)C[C@@H]3O[C@H]1C[C@H](N)[C@H](O)[C@H](C)O1 [DOXORUBICIN],IC50,DU-145,2.13 µM
same,IC50,MCF7,2.18 µM
same,IC50,HeLa,1.73 µM
